According to publication PMC7960611, “A phase 1 study of crenigacestat (LY3039478), the Notch inhibitor, in Japanese patients with advanced solid tumors” (Investigational New Drugs, 2020):
Values joined by “and” are separate entries in the source; they are usually repeats but may differ in a detail not shown here. Identical values can stand only once. “Also recorded” adds a separate entry of the source. Like-named read-outs stand apart in the source and are kept apart here.

Experiments:
[1] = test system: Japanese patients with advanced solid tumors; assay: Safety assessment: adverse events (CTCAE v 4.0), DLT/DLET, phase 1 dose escalation; format: in vivo, human
Protocol: The study consisted of 2 dose levels of crenigacestat (25 mg and 50 mg), administered orally TIW prior to a meal. A cycle was defined as 28 days. Patients were admitted to the investigational site for 4 weeks through the entire first cycle but were discharged and managed on an outpatient basis on or after day 15 upon investigator discretion. The planned duration of treatment was not fixed. Treatment continued until disease progression, development of unacceptable toxicity, or any other discontinuation criteria were met.
Data were evaluated on an ongoing basis until the tolerability of crenigacestat for 50 mg was confirmed. Safety data, in particular adverse events (AEs), were the primary criteria for dose escalation. Dose escalation was driven for each treatment combination using the 3 + 3 method. Transition of dose level (from 25 to 50 mg) proceeded if the frequency of dose-limiting toxicity (DLT) observed in cycle 1 was <33% of patients in the first dose level (25 mg). For DLTs, an evaluable patient was defined as a patient who received ≥75% of the planned dose in cycle 1 or a patient who experienced DLT in cycle 1.
Adverse events were collected throughout the study and coded using Medical Dictionary for Regulatory Activities (MedDRA) terms (Version 22.0). […]

[2] = test system: advanced solid tumors in Japanese patients; assay: Efficacy assessment: tumor response (RECIST v1.1); format: in vivo, human
Protocol: Tumor response, including overall response rate, was measured using RECIST v1.1 [12] or the Response Assessment in Neuro-Oncology criteria for glioblastoma. Patient’s full extent of disease was also assessed via evaluation of performance status (ECOG). Where applicable, tumor measurements were performed by positron emission tomography response criteria of the European Organization for Research and Treatment of Cancer, as well as evaluation of tumor markers. To confirm objective responses, all lesions were radiologically assessed and the same radiologic method used at baseline and for the initial response determination was repeated at least 4 weeks following the initial observation of an objective response.

[3] = Pharmacokinetics: plasma concentrations by LC-MS/MS, noncompartmental analysis; format: in vivo; conditions: human; for AUC(0-inf) / Cmax / AUC(0-t): geometric mean (%CV); for AUC(0-t): read-out: AUC0–48
Protocol: All patients who received at least 1 dose of the study drug, and had sufficient samples collected, were included in the PK analysis. […] Plasma concentrations of crenigacestat were quantified using a validated liquid chromatography-tandem mass spectrometry (LC-MS/MS) assay. The PK parameters for crenigacestat were calculated by standard noncompartmental methods of analysis. The primary PK parameters for analysis were maximum plasma concentration (Cmax) and area under the plasma concentration-time curve (AUC) from time zero to infinity or over 1 dosing interval at steady state of crenigacestat.

[4] = test system: non-Japanese patients with advanced or metastatic cancers; set-up: method as in PMID 30060061; conditions: TIW during a 28-day cycle; cited from earlier work
[5] = po, 25 mg, Day 1 (Dose 1), 25 mg oral TIW
[6] = po, 25 mg, Day 22 (Dose 10), 25 mg oral TIW
[7] = po, 50 mg, Day 1 (Dose 1), 50 mg oral TIW
[8] = po, 50 mg, Day 22 (Dose 10), 50 mg oral TIW

In the case of `C[C@H](NC(=O)CCC(F)(F)F)C(=O)N[C@@H]1C(=O)N(CCO)c2ncccc2-c2ccccc21` [Crenigacestat, crenigacestat], the “Serious adverse events (SAEs), discontinuation or death due to an AE” value ([1]; both treatment arms, on treatment or within 30 days of discontinuation) is reported as “no patients who reported any serious adverse events (SAEs), discontinued study treatment due to an adverse event (AEs) or SAE, or died due to an AE”, the “Recommended dose in Japanese patients” value ([1]; human, in vivo, po, 28 days) is reported as 50 mg and the “Complete or partial response to the treatment” value ([2]; 25 mg and 50 mg oral TIW, all patients) is reported as “None of the patients had a complete or partial response; also recorded: no partial or complete responses”. The “Best overall response: Complete response (CR)” value ([2]; 25 mg oral TIW (n = 4)) was 0 n (%), the “Best overall response: Partial response (PR)” value ([2]; 25 mg oral TIW (n = 4)) was 0 n (%) and the “Best overall response: Progressive disease” value ([2]; 25 mg oral TIW (n = 4)) was 4 (100.0) n (%). The “Disease control rate (CR/PR/SD)” value ([2]; 25 mg oral TIW (n = 4)) was 0 n (%), the “Best overall response: Complete response (CR)” value ([2]; 50 mg oral TIW (n = 7)) was 0 n (%) and the “Best overall response: Partial response (PR)” value ([2]; 50 mg oral TIW (n = 7)) was 0 n (%). For the same molecule, the “Best overall response: Progressive disease” value ([2]; 50 mg oral TIW (n = 7)) was 6 (85.7) n (%), the “Disease control rate (CR/PR/SD)” value ([2]; 50 mg oral TIW (n = 7)) was 1 (14.3) n (%) and the “Duration of stable disease” value ([2]; one patient with a desmoid tumor, 50-mg treatment arm) was 22.5 months and 22.47 months. The Tumor size shrinkage ([2]; one patient with a desmoid tumor, 50-mg treatment arm, first 8 cycles) was 22.4% and 22.37%, the AUC(0-inf) ([3]; Day 1 (Dose 1), 25 mg oral TIW) was 1480 ng·h/mL and the AUC(0-inf) ([3]; Day 1 (Dose 1), 50 mg oral TIW) was 3080 ng·h/mL. For the same molecule, the Tmax ([3]; oral, postdose, each dose level, read-out: Median time to maximum plasma concentration (tmax)) was roughly 2 h, the half-life ([3]; po, 25 mg and 50 mg oral TIW, read-out: Mean t1/2 (converted)) was roughly 240 min and the Cmax [3, 5] was 324 ng/mL. The AUC(0-t) [3, 5] was 1480 ng·h/mL, the Tmax ([3]; po, 25 mg, Day 1 (Dose 1), 25 mg oral TIW, read-out: tmax, median (range)) was 1.92 h and the half-life ([3]; po, 25 mg, Day 1 (Dose 1), 25 mg oral TIW, read-out: t½, geometric mean (range) (converted)) was 218 min. For the same molecule, the Cmax [3, 6] was 429 ng/mL, the AUC(0-t) [3, 6] was 2070 ng·h/mL and the Tmax ([3]; po, 25 mg, Day 22 (Dose 10), 25 mg oral TIW, read-out: tmax, median (range)) was 1.88 h. The half-life ([3]; po, 25 mg, Day 22 (Dose 10), 25 mg oral TIW, read-out: t½, geometric mean (range) (converted)) was 251 min, the Cmax [3, 7] was 670 ng/mL and the AUC(0-t) [3, 7] was 3080 ng·h/mL. It also gave a Tmax ([3]; po, 50 mg, Day 1 (Dose 1), 50 mg oral TIW, read-out: tmax, median (range)) of 1.93 h, a half-life ([3]; po, 50 mg, Day 1 (Dose 1), 50 mg oral TIW, read-out: t½, geometric mean (range) (converted)) of 233 min and a Cmax [3, 8] of 416 ng/mL. For the same molecule, the AUC(0-t) [3, 8] was 2090 ng·h/mL, the Tmax ([3]; po, 50 mg, Day 22 (Dose 10), 50 mg oral TIW, read-out: tmax, median (range)) was 1.94 h and the half-life ([3]; po, 50 mg, Day 22 (Dose 10), 50 mg oral TIW, read-out: t½, geometric mean (range) (converted)) was 220 min. For the same molecule, the “Recommended phase 2 dose, monotherapy” value [4] was 50 mg.
